In PMC9405973, “Altered Conformational Landscape upon Sensing Guanine Nucleotides in a Disease Mutant of Elongation Factor-like 1 (EFL1) GTPase” (Biomolecules, 2022):

Assays:
[1] = target: T1, Efl1 mutant T33A in complex with Sdo1 and the 60S subunits (Saccharomyces cerevisiae, UniProt P53893, T33A); experiment: Steady state fluorescence binding of mant-GTP to Efl1 T33A in complex with Sdo1 and 60S subunits; conditions: 25 °C, one-binding-site model; read-out: dissociation constant (Kd)
T1 construct: made in house; host or cells: Efl1: Saccharomyces cerevisiae; Sdo1: Escherichia coli C41; 60S subunits purified from S. cerevisiae strain JD1370
T1 sequence (P53893 1-1110 T33A): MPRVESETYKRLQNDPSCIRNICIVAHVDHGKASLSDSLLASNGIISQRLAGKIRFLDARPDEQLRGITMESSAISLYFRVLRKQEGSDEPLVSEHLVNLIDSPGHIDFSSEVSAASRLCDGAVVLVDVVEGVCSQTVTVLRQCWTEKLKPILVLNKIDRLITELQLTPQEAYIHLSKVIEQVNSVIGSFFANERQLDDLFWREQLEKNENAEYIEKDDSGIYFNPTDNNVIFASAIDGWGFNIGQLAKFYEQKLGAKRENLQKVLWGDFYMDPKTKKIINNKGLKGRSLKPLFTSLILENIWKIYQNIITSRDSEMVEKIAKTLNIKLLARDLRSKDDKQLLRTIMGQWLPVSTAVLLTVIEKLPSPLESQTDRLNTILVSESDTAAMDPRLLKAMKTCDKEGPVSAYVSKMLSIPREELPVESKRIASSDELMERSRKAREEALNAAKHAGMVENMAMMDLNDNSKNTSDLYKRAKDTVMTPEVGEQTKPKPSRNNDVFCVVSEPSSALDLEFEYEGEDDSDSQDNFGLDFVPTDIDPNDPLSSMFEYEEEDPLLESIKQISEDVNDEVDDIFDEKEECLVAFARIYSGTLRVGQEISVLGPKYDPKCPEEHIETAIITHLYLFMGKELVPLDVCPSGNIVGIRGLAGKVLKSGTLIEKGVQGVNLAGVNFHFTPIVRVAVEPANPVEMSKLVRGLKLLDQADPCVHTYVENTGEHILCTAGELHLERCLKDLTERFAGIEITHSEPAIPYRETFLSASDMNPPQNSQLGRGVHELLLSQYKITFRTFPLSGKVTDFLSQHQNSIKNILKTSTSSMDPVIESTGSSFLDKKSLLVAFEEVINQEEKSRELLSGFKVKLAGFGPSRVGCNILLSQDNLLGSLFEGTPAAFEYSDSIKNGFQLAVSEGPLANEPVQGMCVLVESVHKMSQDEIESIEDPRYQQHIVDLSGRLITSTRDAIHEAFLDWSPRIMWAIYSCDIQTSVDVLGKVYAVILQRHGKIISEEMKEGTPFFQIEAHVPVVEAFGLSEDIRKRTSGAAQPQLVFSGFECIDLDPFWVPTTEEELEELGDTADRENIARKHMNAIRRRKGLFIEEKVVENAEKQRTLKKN
T1 sequence (Q07953 1-250 partner): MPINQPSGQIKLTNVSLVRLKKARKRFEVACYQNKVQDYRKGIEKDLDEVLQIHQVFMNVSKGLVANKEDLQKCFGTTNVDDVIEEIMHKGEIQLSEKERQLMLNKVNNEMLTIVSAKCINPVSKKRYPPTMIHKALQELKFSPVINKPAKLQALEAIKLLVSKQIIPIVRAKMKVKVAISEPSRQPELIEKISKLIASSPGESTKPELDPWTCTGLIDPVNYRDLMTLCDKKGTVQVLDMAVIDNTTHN
Method: We measured the binding of different Efl1 constructs present in complex with Sdo1 and 60S subunits to the fluorescence GTP analogue, mant-GTP, by following the increase in the fluorescence signal after excitation at 355 nm. Fluorescence intensities were plotted as a function of increasing nucleotide concentrations, and the dissociation constant (Kd) was calculated by fitting the data to a one-binding-site model (Supplementary Figure S1B).
Hydrolysis of GTP was measured using the Enzchek Phosphate Assay kit (Molecular Probes) as described by Webb. Standard reactions consisted of 100 µL containing 6 µM of Efl1 R1086Q and Efl1 L910K, 0.3 mM MESG, 1.0 U purine nucleoside phosphorylase (PNP) and the indicated amounts of GTP. […]
Reactions were initiated and the GTPase was added after 3 min. Time courses were followed by recording the change in absorbance at 360 nm in a Cary 60 UV -Vis spectrophotometer (Agilent Technologies). Background absorbance was recorded prior to the addition of the GTPase and subtracted from the sample signals. The slope of the measured time courses corresponded to the GTP hydrolysis rate. […] Data were analysed by nonlinear regression to the M ichaelis-Menten equation with the program Origin Version 5.0 (OriginLab, Co., Northampton, MA). […]
Steady state fluorescence measurements […]
Maximum emission at 440 nm was replotted as a function of nucleotide concentration and analysed

wild-type Efl1 = experiment: ITC: binding of guanine nucleotides or Sdo1 to wild-type Efl1 (data of ref 6); parameters: species or system Saccharomyces cerevisiae; conditions: native protein

Compound	Kd [1] [µM]	overall heat-capacity change to drive the protein into ternary complex GTPase•GTP•Sdo1 (wild-type Efl1) [cal mol^−1 K^−1]
CNc1ccccc1C(=O)O[C@H]1[C@@H](O)[C@H](n2cnc3c(=O)[nH]c(N)nc32)O[C@@H]1COP(=O)(O)OP(=O)(O)OP(=O)(O)O [mant-GTP]	24	–
Nc1nc2c(ncn2[C@@H]2O[C@H](COP(=O)(O)OP(=O)(O)OP(=O)(O)O)[C@@H](O)[C@H]2O)c(=O)[nH]1 [GTP]	–	−950
